Literature values in publication PMC4875935 (Clinical Pharmacokinetics, 2015).
Several values for one entry are separate records, joined by “and”; a condition that tells them apart may be missing. Equal values may be shown once.

How the values were obtained:
[1] = system: Candida albicans; conditions: neutropenic mouse model of disseminated Candida albicans
[2] = system: invasive candidiasis
[3] = system: C. albicans
[4] = not given; remark: listed apart in the source

## CC[C@H](C)C[C@H](C)CCCCCCCCC(=O)N[C@H]1C[C@@H](O)[C@@H](NCCN)NC(=O)[C@@H]2[C@@H](O)CCN2C(=O)[C@H]([C@H](O)CCN)NC(=O)[C@H]([C@H](O)[C@@H](O)c2ccc(O)cc2)NC(=O)[C@@H]2C[C@@H](O)CN2C(=O)[C@H]([C@@H](C)O)NC1=O [caspofungin]
[1]
  AUC/MIC ratio associated with a 1-log kill/24 h: 865
[2]; 150 mg daily, patients with invasive candidiasis
  tolerability: well-tolerated
[2]; reported response rates in the literature
  clinical and mycological cure at the end of therapy: 72–73%
other
  protein bound: 92–97%
[3]
  epidemiological cut-off value: 0.12 µg/mL
  mode MIC: 0.03 µg/mL
[4]; earlier studies amongst other patient groups
  CL: 0.40 L/h and 0.46 L/h
[4]; typically observed for caspofungin
  AUC24 typically observed: 100000 ng·h/mL
